Experimental data as given in patent publication US12496329B2, “Methods of using and compositions including an incretin analog” (Eli Lilly and Company, priority 2021, dated 2025).
Like-named read-outs stand apart in the source and are kept apart here.

What was measured:
[1] = SAD study: plasma pharmacokinetics after a single SC dose; assay type: in vivo; conditions: both sexes, human
Excerpt: (§1) Studies are designed to evaluate the safety, tolerability, pharmacodynamics (PD) and pharmacokinetics (PK) of the GGG tri-receptor agonist (SEQ ID NO:1) in healthy individuals. The SAD study is a randomized, investigator- and participant-blind, placebo-controlled, single-dose, single-site, dose-escalation study conducted in healthy individuals (e.g., overtly healthy females or males aged 21-65 years, inclusive, with a BMI 19-40 kg/m^2 at screening).
(§2) Six dose levels of the GGG tri-receptor agonist-0.1, 0.3, 1.0, 3.0, 4.5 and 6.0 mg—are explored in the SAD study, as well as placebo (i.e., 0.0 mg). A dose escalation of the GGG tri-receptor agonist is assessed in cohorts of healthy individuals (e.g., 6 individuals receiving the GGG tri-receptor agonist and 2 individuals receiving placebo per cohort). Staggered dosing is performed for each cohort, in which a new higher dose of the GGG tri-receptor agonist is administered. All injections are administered into the SC tissue of an abdominal wall, in a right or left lower quadrant.
Blood samples are collected pre-dose and at 4 hours (hr), 10 hr, 14 hr, 24 hr (Day 1), 48 hr (Day 2), 72 hr (Day 3), 96 hr (Day 4), 120 hr ([…]), 168 hr (Day 7), 336 hr (Day 14), 672 hr (Day 28) and 1008 hr (Day 42) post-dose to determine plasma concentration of the GGG tri-receptor agonist. Plasma concentrations are used to compute PK parameters using standard non-compartmental methods in a validated software program (Phoenix WinNonlin Version 8.1).
Bioanalytical methods: plasma samples are analyzed at Q2 Solutions (Ithaca, NY). The samples are analyzed for the GGG tri-receptor agonist using a validated liquid chromatography high resolution mass spectrometry method. The lower limit of quantification is 1.00 ng/mL and the upper limit of quantification is 500.00 ng/ml. Samples above a limit of quantification are diluted and reanalyzed to yield results within the calibrated range. The intra-assay accuracy (% relative error) during validation ranges from −6.3% to 15.7%. The intra-assay precision (% relative standard deviation) during validation is ≤14.7%. The GGG tri-receptor agonist is stable for up to 96 days when stored at about-20° C. and about −70° C.
Actual sampling times are used in the calculation of all PK parameters and concentration versus time profiles.
Concentration values below the quantifiable lower limit of the assay are excluded from the calculation of PK parameters, except for those prior to the first measurable concentration, which are set to a value of 0.
A concentration average is plotted for a given sample if two thirds of the individual data at the time point have quantifiable measurements. Concentrations at sampling times exceeding ±10% of the scheduled time ware excluded from the average concentration profiles.

[2] = SAD study: safety and tolerability; assay type: in vivo, human
Excerpt: as §1, §2
Safety analyses: Safety parameters assessed during the study included: AEs (with special interest to GI AEs such as nausea, vomiting, and diarrhea), laboratory parameters (with special attention to hepatic and pancreatic biomarkers), physical examinations/medical assessments, vital signs and ECGs, BW, injection site reactions, hypersensitivity reactions, and glucose monitoring (with special attention to hypoglycemia).

[3] = MAD study in individuals with diabetes: safety and tolerability; assay type: in vivo, human
Excerpt: Studies are designed to evaluate the safety, tolerability, PD and PK of the GGG tri-receptor agonist (SEQ ID NO:1) in individuals with diabetes. The MAD study is a randomized, investigator- and participant-blind, placebo-controlled, multiple-ascending dose, single-site study conducted in individuals with diabetes (i.e., females or males aged 20-70 years, inclusive, with T2DM for at least 3 months and HbA1c at lead-in and screening of ≥7.0% and ≤10.5% and treated with diet and exercise alone or a stable dose of metformin for at least 3 months prior to screening, with stable body weight for 3 months prior to randomization and with a BMI of 23-50 kg/m^2 at screening).
Dose escalation of the GGG tri-receptor agonist is assessed over 12 weeks in cohorts with a starting dose of 0.5 mg. One cohort of 13 individuals is administered 0.5 mg for 12 weeks. A second cohort of 13 individuals is administered 1.5 mg for 12 weeks. A third cohort of 15 individuals is administered 3.0 mg for 12 weeks. A fourth cohort of 15 individuals is administered 3.0 mg for 4 weeks and then administered 6.0 mg for 8 weeks. A fifth cohort of 16 individuals is administered 3.0 mg for 2 weeks, administered 6.0 mg for 2 weeks, administered 9.0 mg for 4 weeks, and then administered 12 mg for 4 weeks. Alternate dose increment steps may be introduced based on emerging safety and tolerability data from the preceding cohorts, and the dose increment steps can be reduced. As a non-limiting example, in Cohort 4, escalation from starting dose of 3 mg may occur via a step-through dose of 4.5 mg before attaining 6 mg, in Cohort 5, escalation from starting dose of 3 to 12 mg may occur via an additional step through dose level of 4.5 mg, prior to the planned doses 6 and 9 mg. In addition to these proposed alternate regimens in Cohort 4 and Cohort 5, planned dose for escalation between cohorts and within cohorts may be further reduced if warranted by safety or tolerability data.
In the event of drug hypersensitivity reactions (immediate or nonimmediate), samples are collected for antidrug antibody (ADA) analysis as close to the onset of the event as possible, at the resolution of the event, and 30 days following the onset of the event. Samples are analyzed using a validated electrochemiluminescence immunosorbent assay at BioAgilytix Labs (Durham, NC).

**Q.** Which results are given for `CC[C@H](C)[C@H](NC(=O)[C@H](Cc1ccccc1)NC(=O)[C@H](C)NC(=O)C(C)(C)NC(=O)[C@H](CCC(N)=O)NC(=O)[C@H](C)NC(=O)[C@H](CCCCNC(=O)COCCOCCNC(=O)CC[C@H](NC(=O)CCCCCCCCCCCCCCCCCCC(=O)O)C(=O)O)NC(=O)[C@H](CCCCN)NC(=O)[C@H](CC(=O)O)NC(=O)[C@H](CC(C)C)NC(=O)[C@](C)(CC(C)C)NC(=O)[C@@H](NC(=O)[C@H](CO)NC(=O)[C@H](Cc1ccc(O)cc1)NC(=O)[C@H](CC(=O)O)NC(=O)[C@H](CO)NC(=O)[C@@H](NC(=O)[C@H](Cc1ccccc1)NC(=O)[C@@H](NC(=O)CNC(=O)[C@H](CCC(N)=O)NC(=O)C(C)(C)NC(=O)[C@@H](N)Cc1ccc(O)cc1)[C@@H](C)O)[C@@H](C)O)[C@@H](C)CC)C(=O)N[C@@H](CCC(=O)O)C(=O)N[C@@H](Cc1ccc(O)cc1)C(=O)N[C@@H](CC(C)C)C(=O)N[C@@H](CC(C)C)C(=O)N[C@@H](CCC(=O)O)C(=O)NCC(=O)NCC(=O)N1CCC[C@H]1C(=O)N[C@@H](CO)C(=O)N[C@@H](CO)C(=O)NCC(=O)N[C@@H](C)C(=O)N1CCC[C@H]1C(=O)N1CCC[C@H]1C(=O)N1CCC[C@H]1C(=O)N[C@@H](CO)C(N)=O` [GGG tri-receptor agonist, Y-Aib-QGTFTSDYSI-αMeL-LDKK((2-[2-(2-amino-ethoxy)-ethoxy]-acetyl)-(γGlu)-CO-(CH2)18-CO2H)AQ-Aib-AFIEYLLEGGPSSGAPPPS-NH2]?
**A.** AUC(0-inf) ([1]; 0.1 mg single SC dose): 3750 ng·h/mL; CL/F ([1]; 0.1 mg single SC dose): 0.445 mL/min; Cmax ([1]; 0.1 mg single SC dose): 11 ng/mL; Tmax ([1]; 0.1 mg single SC dose): 72 h; AUC(0-inf) ([1]; 0.3 mg single SC dose): 10300 ng·h/mL; CL/F ([1]; 0.3 mg single SC dose): 0.485 mL/min; Cmax ([1]; 0.3 mg single SC dose): 44.8 ng/mL; Tmax ([1]; 0.3 mg single SC dose): 72.2 h; AUC(0-inf) ([1]; 1.0 mg single SC dose): 28300 ng·h/mL; CL/F ([1]; 1.0 mg single SC dose): 0.59 mL/min; Cmax ([1]; 1.0 mg single SC dose): 110 ng/mL; Tmax ([1]; 1.0 mg single SC dose): 48 h; AUC(0-inf) ([1]; 3.0 mg single SC dose): 69100 ng·h/mL; CL/F ([1]; 3.0 mg single SC dose): 0.723 mL/min; Cmax ([1]; 3.0 mg single SC dose): 251 ng/mL; Tmax ([1]; 3.0 mg single SC dose): 14 h; AUC(0-inf) ([1]; 4.5 mg single SC dose): 130000 ng·h/mL; CL/F ([1]; 4.5 mg single SC dose): 0.577 mL/min; Cmax ([1]; 4.5 mg single SC dose): 589 ng/mL; Tmax ([1]; 4.5 mg single SC dose): 12 h; AUC(0-inf) ([1]; 6.0 mg single SC dose): 150000 ng·h/mL; CL/F ([1]; 6.0 mg single SC dose): 0.668 mL/min; Cmax ([1]; 6.0 mg single SC dose): 635 ng/mL; Tmax ([1]; 6.0 mg single SC dose): 24 h; half-life ([1]; sc, 0.1 mg, 0.1 mg single SC dose, read-out: t½ (converted)): 165 h; half-life ([1]; sc, 0.3 mg, 0.3 mg single SC dose, read-out: t½ (converted)): 139 h; half-life ([1]; sc, 1 mg, 1.0 mg single SC dose, read-out: t½ (converted)): 134 h; half-life ([1]; sc, 3 mg, 3.0 mg single SC dose, read-out: t½ (converted)): 134 h; half-life ([1]; sc, 4.5 mg, 4.5 mg single SC dose, read-out: t½ (converted)): 163 h; half-life ([1]; sc, 6 mg, 6.0 mg single SC dose, read-out: t½ (converted)): 149 h; half-life ([1]; subcutaneous, single dose, read-out: mean terminal t½): 120 to 168 h; incidence of GI AEs (emesis, nausea) ([2]; Phase 1 dosing study, 6.0 mg or higher doses): higher-than-expected incidence of GI AEs; individuals reporting TEAEs ([2]; single SC dose): 97.1%; injection-site reactions ([2]; single SC dose): No injection-site reactions; individuals reporting TEAEs related to study treatment ([2]; single SC dose, 20 individuals): 57.1%; hypoglycemic episodes ([2]; single SC dose, all asymptomatic): low across all groups; severity of AEs ([2]; single SC dose, dose-dependent): mild to moderate in severity; pulse rate ([2]; single SC dose, returned to baseline or near-baseline by Day 29): Dose-related increases in pulse rate; tolerability ([2]; single SC doses of 0.1, 0.3, 1.0 and 3.0 mg): well tolerated; incidence of GI events (vomiting, abdominal distension, nausea) ([2]; single SC doses of 4.5 and 6.0 mg): increased incidence of GI events; systolic blood pressure ([3]; 6.0 mg and 12.0 mg arms): dose-dependent decrease in systolic blood pressure; GI events (nausea, diarrhea, vomiting) ([3]; MAD study): mostly mild in severity and dose related; heart rate ([3]; MAD study): Dose-dependent increases in heart rate; tolerability ([3]; MAD study, 12 weeks QW): well tolerated; incidences of AEs ([3]; doses of ≥6.0 mg): increased incidences of AEs; safety concerns ([3]; multiple SC doses of 0.5 to 12.0 mg): no unexpected safety concerns; tolerability ([3]; once-weekly 0.5, 1.5 and 3.0 mg for 12 weeks): well tolerated
